Source: paper PMC9596378, “Discovery and molecular basis of subtype-selective cyclophilin inhibitors” (Nature Chemical Biology, 2022)
“And” between values parts separate entries of the source, which are not always exact repeats. Equal entries are not always repeated. Where two headings read alike, the source gives them in different places.

Key:
CypD = CypD (Homo sapiens, UniProt P30405); assay: Chymotrypsin coupled prolyl-isomerase assay; conditions: for CypD prolyl-isomerase assay raw dose-response value: Fig. 3b source data, replicates
CypB = biological target: T1, CypB (Homo sapiens, UniProt P23284); assay: biochemical; conditions: for CypB prolyl-isomerase assay raw dose-response value: Fig. 3b source data, replicates
T1 construct: PPIB (UniProtKB Entry P23284: residues 34–216); His6 with TEV site (2BT vector leader) (N); made in house; host or cells: E. coli BL21(DE3)
Outline: (§1)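 Steps: cyclophilin plus compound 5 min at 2–3 °C; α-chymotrypsin added, 5 min more; Suc-AAPF-AMC substrate in LiCl/trifluoroethanol injected and fluorescence followed 330 s. Finals: 5 nM enzyme, 25 µM chymotrypsin, 5 µM substrate, 0.25% DMSO.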

NKTR = biological target: T2, NKTR (Homo sapiens, UniProt P30414); assay: Chymotrypsin coupled prolyl-isomerase assay; format: biochemical; conditions: for NKTR prolyl-isomerase assay raw dose-response value: Fig. 3b source data, replicates
T2 construct: NKTR (UniProtKB Entry P30414: residues 7–179); host or cells: E. coli BL21(DE3)
T2 sequence (P30414 7-179): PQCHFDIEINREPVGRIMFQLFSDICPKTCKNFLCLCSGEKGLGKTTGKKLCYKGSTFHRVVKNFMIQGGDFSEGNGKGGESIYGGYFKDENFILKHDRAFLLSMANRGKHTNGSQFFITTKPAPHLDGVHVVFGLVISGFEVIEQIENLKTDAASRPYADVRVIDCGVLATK

PPWD1 = biological target: T3, PPWD1 (Homo sapiens, UniProt Q96BP3); assay: Chymotrypsin coupled prolyl-isomerase assay; format: biochemical; conditions: for PPWD1 prolyl-isomerase assay raw dose-response value: Fig. 3b source data, replicates
T3 construct: PPWD1 (UniProtKB Entry Q96BP3: residues 473–646); host or cells: E. coli BL21(DE3)
T3 sequence (Q96BP3 473-646): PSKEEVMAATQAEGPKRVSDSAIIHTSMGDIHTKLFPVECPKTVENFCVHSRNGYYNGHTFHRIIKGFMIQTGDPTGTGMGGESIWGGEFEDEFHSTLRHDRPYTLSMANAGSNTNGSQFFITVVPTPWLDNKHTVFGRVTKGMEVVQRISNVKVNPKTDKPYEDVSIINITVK

Cyp40 = Cyp40 (Homo sapiens, UniProt Q08752); assay: Chymotrypsin coupled prolyl-isomerase assay; conditions: for Cyp40 prolyl-isomerase assay raw dose-response value: Fig. 3b source data, replicates
Outline: as §1

PPIL1 = biological target: T4, PPIL1 (Homo sapiens, UniProt Q9Y3C6); assay: Chymotrypsin coupled prolyl-isomerase assay; format: biochemical; conditions: for PPIL1 prolyl-isomerase assay raw dose-response value: Fig. 3b source data, replicates; for IC50: wild-type PPIL1, read-out: Wild-Type Cyclophilin Prolyl Isomerase Inhibition IC50 Values, PPIL1
T4 construct: PPIL1 (UniProtKB Entry Q9Y3C6: residues 1–166); made in house; host or cells: E. coli BL21(DE3)
T4 sequence (Q9Y3C6 1-166): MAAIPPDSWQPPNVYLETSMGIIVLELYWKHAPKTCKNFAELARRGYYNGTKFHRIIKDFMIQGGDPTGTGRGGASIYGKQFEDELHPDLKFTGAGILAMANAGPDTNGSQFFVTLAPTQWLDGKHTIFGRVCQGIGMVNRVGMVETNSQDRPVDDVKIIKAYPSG

[1] = wild-type CypB, read-out: Wild-Type Cyclophilin Prolyl Isomerase Inhibition IC50 Values, CypB
[2] = wild-type NKTR, read-out: Wild-Type Cyclophilin Prolyl Isomerase Inhibition IC50 Values, NKTR
[3] = wild-type PPWD1, read-out: Wild-Type Cyclophilin Prolyl Isomerase Inhibition IC50 Values, PPWD1
[4] = Wild-Type Cyclophilin Prolyl Isomerase Inhibition IC50 Values, Cyp40, wild-type Cyp40

T1 sequence (P23284 34-216): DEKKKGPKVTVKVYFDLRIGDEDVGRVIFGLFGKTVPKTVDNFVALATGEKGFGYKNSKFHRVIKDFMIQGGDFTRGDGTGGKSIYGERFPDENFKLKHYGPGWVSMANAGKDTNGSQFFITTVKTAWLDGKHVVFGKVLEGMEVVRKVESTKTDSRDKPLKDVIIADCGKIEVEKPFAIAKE
Chain of Cyp40 (Q08752 1-183): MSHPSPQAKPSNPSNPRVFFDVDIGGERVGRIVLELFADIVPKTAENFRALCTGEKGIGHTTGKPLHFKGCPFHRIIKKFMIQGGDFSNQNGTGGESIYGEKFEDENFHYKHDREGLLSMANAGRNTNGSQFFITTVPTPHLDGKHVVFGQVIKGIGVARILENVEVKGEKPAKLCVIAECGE
Chain of CypD (P30405 45-207): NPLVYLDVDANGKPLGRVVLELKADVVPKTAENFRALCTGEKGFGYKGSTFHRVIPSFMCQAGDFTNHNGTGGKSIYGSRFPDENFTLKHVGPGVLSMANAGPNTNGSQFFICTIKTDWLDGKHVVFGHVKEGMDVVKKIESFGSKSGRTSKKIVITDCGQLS

NCCOCCNC(=O)[C@@H]1CCNC(=O)/C=C/C(=O)N2CCC[C@](Cc3ccccc3)(C2)C(=O)N[C@@H](Cc2ccc(-c3ccc(C#CC(=O)O)cc3)cc2)C(=O)NCc2ccccc2CC(=O)N1 [Compound B25]
IC50 (CypD): 3 nM | CypD prolyl-isomerase assay raw dose-response value (CypD; Dose 0.000457247 µM): 0.0674 and 0.06729 and 0.07005 | CypD prolyl-isomerase assay raw dose-response value (CypD; Dose 0.00137174 µM): 0.06909 and 0.05826 and 0.0465 | CypD prolyl-isomerase assay raw dose-response value (CypD; Dose 0.00411523 µM): 0.04183 and 0.04697 and 0.03133 | CypD prolyl-isomerase assay raw dose-response value (CypD; Dose 0.0123457 µM): 0.02432 and 0.02391 and 0.02276 | CypD prolyl-isomerase assay raw dose-response value (CypD; Dose 0.037037 µM): 0.01562 and 0.01516 and 0.01481 | CypD prolyl-isomerase assay raw dose-response value (CypD; Dose 0.111111 µM): 0.01259 and 0.0133 and 0.01227 | CypD prolyl-isomerase assay raw dose-response value (CypD; Dose 0.333333 µM): 0.01238 and 0.01154 and 0.0111 | CypD prolyl-isomerase assay raw dose-response value (CypD; Dose 1 µM): 0.01437 and 0.01145 and 0.01083 | IC50 (CypB; CypB (comparator for CypB E121S), read-out: Mutant Cyclophilin Prolyl Isomerase Inhibition IC50 Values, CypB): 11 nM | CypB prolyl-isomerase assay raw dose-response value (CypB; Dose 0.000457247 µM): 0.06463 and 0.04091 and 0.06594 | CypB prolyl-isomerase assay raw dose-response value (CypB; Dose 0.00137174 µM): 0.06615 and 0.04875 and 0.05304 | CypB prolyl-isomerase assay raw dose-response value (CypB; Dose 0.00411523 µM): 0.04683 and 0.04984 | CypB prolyl-isomerase assay raw dose-response value (CypB; Dose 0.0123457 µM): 0.03647 and 0.03228 and 0.03371 | CypB prolyl-isomerase assay raw dose-response value (CypB; Dose 0.037037 µM): 0.02322 and 0.02268 and 0.02146 | CypB prolyl-isomerase assay raw dose-response value (CypB; Dose 0.111111 µM): 0.01709 and 0.01633 and 0.0158 | CypB prolyl-isomerase assay raw dose-response value (CypB; Dose 0.333333 µM): 0.01481 and 0.01358 and 0.01262 | CypB prolyl-isomerase assay raw dose-response value (CypB; Dose 1 µM): 0.01394 and 0.01269 and 0.01205 | IC50 (CypB; prolyl-isomerase inhibition, 5 nM cyclophilin, read-out: IC50 CypB): 11 ± 3 nM | IC50 (CypB; [1]): 11 nM | NKTR prolyl-isomerase assay raw dose-response value (NKTR; Dose 0.0228624 µM): 0.03241 and 0.03231 and 0.03444 | NKTR prolyl-isomerase assay raw dose-response value (NKTR; Dose 0.0685871 µM): 0.03299 and 0.03067 and 0.03202 | NKTR prolyl-isomerase assay raw dose-response value (NKTR; Dose 0.205761 µM): 0.03236 and 0.03203 | NKTR prolyl-isomerase assay raw dose-response value (NKTR; Dose 0.617284 µM): 0.03089 and 0.03188 and 0.03316 | NKTR prolyl-isomerase assay raw dose-response value (NKTR; Dose 1.85185 µM): 0.03191 and 0.03168 and 0.03161 | NKTR prolyl-isomerase assay raw dose-response value (NKTR; Dose 5.55556 µM): 0.03134 and 0.03255 and 0.03129 | NKTR prolyl-isomerase assay raw dose-response value (NKTR; Dose 16.6667 µM): 0.03138 and 0.0295 and 0.03008 | NKTR prolyl-isomerase assay raw dose-response value (NKTR; Dose 50 µM): 0.02697 and 0.02369 and 0.02457 | IC50 (NKTR; [2]): > 50000 nM | PPWD1 prolyl-isomerase assay raw dose-response value (PPWD1; Dose 0.0228624 µM): 0.03895 and 0.0361 and 0.043 | PPWD1 prolyl-isomerase assay raw dose-response value (PPWD1; Dose 0.0685871 µM): 0.04294 and 0.03257 and 0.04643 | PPWD1 prolyl-isomerase assay raw dose-response value (PPWD1; Dose 0.205761 µM): 0.03704 and 0.0362 | PPWD1 prolyl-isomerase assay raw dose-response value (PPWD1; Dose 0.617284 µM): 0.03731 (2×) and 0.0336 | PPWD1 prolyl-isomerase assay raw dose-response value (PPWD1; Dose 1.85185 µM): 0.03718 and 0.0343 and 0.0411 | PPWD1 prolyl-isomerase assay raw dose-response value (PPWD1; Dose 5.55556 µM): 0.03268 and 0.0311 and 0.02851 | PPWD1 prolyl-isomerase assay raw dose-response value (PPWD1; Dose 16.6667 µM): 0.02501 and 0.02576 and 0.02254 | PPWD1 prolyl-isomerase assay raw dose-response value (PPWD1; Dose 50 µM): 0.01888 and 0.01599 and 0.01588 | IC50 (PPWD1; prolyl-isomerase inhibition, 5 nM cyclophilin, read-out: IC50 PPWD1): ~10000 nM | IC50 (PPWD1; [3]): 10000 nM | Cyp40 prolyl-isomerase assay raw dose-response value (Cyp40; Dose 0.00457247 µM): 0.06429 and 0.05599 and 0.07223 | Cyp40 prolyl-isomerase assay raw dose-response value (Cyp40; Dose 0.0137174 µM): 0.05813 and 0.05507 and 0.05318 | Cyp40 prolyl-isomerase assay raw dose-response value (Cyp40; Dose 0.0411523 µM): 0.04821 and 0.05825 and 0.0731 | Cyp40 prolyl-isomerase assay raw dose-response value (Cyp40; Dose 0.123457 µM): 0.04592 and 0.05196 and 0.05288 | Cyp40 prolyl-isomerase assay raw dose-response value (Cyp40; Dose 0.37037 µM): 0.03591 and 0.03468 and 0.03748 | Cyp40 prolyl-isomerase assay raw dose-response value (Cyp40; Dose 1.11111 µM): 0.02292 and 0.02127 and 0.02239 | Cyp40 prolyl-isomerase assay raw dose-response value (Cyp40; Dose 3.33333 µM): 0.01681 and 0.01439 and 0.01521 | Cyp40 prolyl-isomerase assay raw dose-response value (Cyp40; Dose 10 µM): 0.01651 and 0.01201 and 0.01273 | IC50 (Cyp40; [4]): 210 nM | PPIL1 prolyl-isomerase assay raw dose-response value (PPIL1; Dose 0.0228624 µM): 0.0374 and 0.04134 and 0.04686 | PPIL1 prolyl-isomerase assay raw dose-response value (PPIL1; Dose 0.0685871 µM): 0.02743 and 0.02671 and 0.02724 | PPIL1 prolyl-isomerase assay raw dose-response value (PPIL1; Dose 0.205761 µM): 0.01848 and 0.01869 | PPIL1 prolyl-isomerase assay raw dose-response value (PPIL1; Dose 0.617284 µM): 0.01432 and 0.01378 and 0.01288 | PPIL1 prolyl-isomerase assay raw dose-response value (PPIL1; Dose 1.85185 µM): 0.01263 and 0.01274 and 0.01211 | PPIL1 prolyl-isomerase assay raw dose-response value (PPIL1; Dose 5.55556 µM): 0.01183 and 0.01164 and 0.01059 | PPIL1 prolyl-isomerase assay raw dose-response value (PPIL1; Dose 16.6667 µM): 0.01229 and 0.01158 and 0.01139 | PPIL1 prolyl-isomerase assay raw dose-response value (PPIL1; Dose 50 µM): 0.01421 and 0.01181 and 0.01108 | IC50 (PPIL1): 20 nM

NCCCc1ccc(-c2ccc(C[C@@H]3NC(=O)[C@]4(Cc5ccccc5)CCCN(C4)C(=O)/C=C/C(=O)NCC[C@@H](C(=O)NCCOCCN)NC(=O)Cc4ccccc4CNC3=O)cc2)cc1 [Compound B32]
IC50 (CypD): 6000 nM | reduction in potency for CypD on replacing the carboxylate with an amine (CypD): 500- to 1,000 fold | IC50 (CypB; [1]): 3000 nM | IC50 (NKTR; [2]): > 50000 nM | IC50 (PPWD1; [3]): 800 nM | IC50 (Cyp40; [4]): 4000 nM | IC50 (PPIL1): 2000 nM

C[N+]1=C(C=CC=CC=C2N(CCCCCC(=O)NCCNC(=O)C3CCNC(=O)C=CC(=O)N4CCCC(Cc5ccccc5)(C4)C(=O)NC(Cc4ccc(-c5ccc(CC(C(=O)O)C(=O)O)cc5)cc4)C(=O)NCc4ccccc4CC(=O)N3)c3ccccc3C2(C)C)C(C)(C)c2ccccc21 (centres unmarked) [Compound B52-Cy5]
IC50 (CypD; read-out: Wild-Type Cyclophilin Prolyl Isomerase Inhibition IC50 Values, CypD, wild-type CypD): 7 nM | IC50 (CypB; [1]): 400 nM | IC50 (NKTR; prolyl-isomerase inhibition, 5 nM cyclophilin, read-out: IC50 NKTR): ~7000 nM | IC50 (NKTR; [2]): 7000 nM | IC50 (PPWD1; [3]): > 10000 nM | IC50 (Cyp40; read-out: Wild-Type Cyclophilin Prolyl Isomerase Inhibition IC50 Values, Cyp40, wild-type Cyp40): > 10000 nM | IC50 (PPIL1): 4000 nM
